According to patent publication US20220056484A1, “SELECTION BY MEANS OF ARTIFICIAL TRANSACTIVATORS” (Ospedale San Raffaele S.R.L., priority 2018, published 2022):

Test system: CXCR4 selector in IL2RG locus, CD34+ cells
Experiment: SMArT-D in CD34+ cells, IL2RG locus, CXCR4 selector
Format: cell-based, human
Settings: lower dose (80 nM), after washout
Protocol: CD34+ cells were edited according to a previously optimized protocol (Schiroli et al., 2017). Briefly, 5×10^5 CD34+ cells/ml were stimulated in serum-free StemSpan medium (StemCell Technologies) supplemented with penicillin, streptomycin, glutamine, 1 μM SR-1 (Biovision), 50 μM UM171 (STEMCell Technologies), 10 μM PGE2 added only at the beginning of the culture (Cayman), and human early-acting cytokines (SCF 100 ng/ml, Flt3-L 100 ng/ml, TPO 20 ng/ml, and IL-6 20 ng/ml; all purchased from Peprotech). After 3 days of pre-stimulation, cells were washed with PBS and electroporated using P3 Primary Cell 4D-Nucleofector X Kit and program EO-100 (Lonza). Cells were electroporated with 2.5-1.25 μM of RNPs. Transduction with AAV6 was performed at a dose of 1×10^4 vg/cell 15′ after electroporation. […] Gene editing efficiency was measured from cultured cells in vitro 3 days after electroporation by flow cytometry measuring the percentage of cells expressing the GFP/truncated NGFR/CXCR4 marker or by digital droplet PCR analysis designing primers and probe on the junction between the vector sequence and the targeted locus and on control sequences utilized as normalizer.

## C[C@H]1c2cccc(O)c2C(=O)C2=C(O)[C@]3(O)C(=O)C(C(N)=O)=C(O)[C@@H](N(C)C)[C@@H]3[C@@H](O)[C@@H]21 [doxycycline]
  CXCR4-overexpressing cells in the most primitive compartment: up to 13%
